Assay results taken from ChEMBL document CHEMBL1201862, “PubChem BioAssay data set” (2004).
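Following 48 hours of exposure in 96-well plates, responses at five concentrations were used to interpolate endpoints linearly. GI50 = concentration required for 50% inhibition of growth.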 Active and inactive are the calls of the source. No stated cut-off is given here; in the data, active = GI50 up to about 1.1 µM and inactive = higher.

What was measured:
Experiment in all cases: DTP human tumour cell line panel, 48 h
XF498 = test system: XF498
KM-20L2 = test system: KM-20L2
SF-539 = test system: SF-539
SNB-75 = test system: SNB-75
UO-31 = test system: UO-31
K562 = test system: K562
TK-10 = test system: TK-10
SK-OV-3 = test system: SK-OV-3
HOP-18 = test system: HOP-18
HT-29 = test system: HT-29
HCC 2998 = test system: HCC 2998
COLO 205 = test system: COLO 205
UACC-257 = test system: UACC-257
DMS-114 = test system: DMS-114
OVCAR-5 = test system: OVCAR-5
SNB-19 = test system: SNB-19
MOLT-4 = test system: MOLT-4
DMS-273 = test system: DMS-273
A549 = test system: A549
SR = test system: SR
SF-295 = test system: SF-295
LXFL 529 = test system: LXFL 529
M14 = test system: M14
SW-620 = test system: SW-620
RXF 393 = test system: RXF 393
CCRF-CEM = test system: CCRF-CEM
IGROV-1 = test system: IGROV-1
SK-MEL-5 = test system: SK-MEL-5
HOP-92 = test system: HOP-92
DLD-1 = test system: DLD-1
KM12 = test system: KM12
EKVX = test system: EKVX
U-251 = test system: U-251
NCI-H226 = test system: NCI-H226
NCI-H522 = test system: NCI-H522
OVCAR-4 = test system: OVCAR-4
OVCAR-3 = test system: OVCAR-3
UACC-62 = test system: UACC-62
LOX IMVI = test system: LOX IMVI
HL-60 = test system: HL-60
ACHN = test system: ACHN
HCT-116 = test system: HCT-116
NCI-H23 = test system: NCI-H23
SN12C = test system: SN12C
SNB-78 = test system: SNB-78
OVCAR-8 = test system: OVCAR-8
CAKI-1 = test system: CAKI-1
HCT-15 = test system: HCT-15
M19-MEL = test system: M19-MEL
SK-MEL-2 = test system: SK-MEL-2
HOP-62 = test system: HOP-62
NCI-H460 = test system: NCI-H460
RPMI-8226 = test system: RPMI-8226
A498 = test system: A498
786-0 = test system: 786-0
Malme-3M = test system: Malme-3M
SF-268 = test system: SF-268
SK-MEL-28 = test system: SK-MEL-28

`CSc1ccc(OCC2OC2O)cc1` (centres undefined) was tested, and the GI50 (XF498) was 30.5 µM (inactive), the GI50 (KM-20L2) was 46.2 µM (inactive) and the GI50 (SF-539) was 74.8 µM (inactive). The GI50 (SNB-75) was > 65.6 µM (inactive), the GI50 (UO-31) was 51.6 µM (inactive) and the GI50 (K562) was 52.8 µM (inactive). The GI50 (TK-10) was > 50 µM (inactive), the GI50 (SK-OV-3) was > 100 µM (inactive) and the GI50 (HOP-18) was > 100 µM (inactive). The GI50 (HT-29) was 32.3 µM (inactive), the GI50 (HCC 2998) was > 86.3 µM (inactive) and the GI50 (COLO 205) was 16.5 µM (inactive). The GI50 (UACC-257) was 41.2 µM (inactive), the GI50 (DMS-114) was 12.9 µM (inactive) and the GI50 (OVCAR-5) was > 94.6 µM (inactive). For the same molecule, the GI50 (SNB-19) was > 92.5 µM (inactive), the GI50 (MOLT-4) was 19.4 µM (inactive) and the GI50 (DMS-273) was 34.2 µM (inactive). For the same molecule, the GI50 (A549) was 42.3 µM (inactive), the GI50 (SR) was 45.2 µM (inactive) and the GI50 (SF-295) was 41.1 µM (inactive). The GI50 (LXFL 529) was 29 µM (inactive), the GI50 (M14) was 49.5 µM (inactive) and the GI50 (SW-620) was 18.4 µM (inactive). The GI50 (RXF 393) was > 63.7 µM (inactive), the GI50 (CCRF-CEM) was 21.7 µM (inactive) and the GI50 (IGROV-1) was > 100 µM (inactive). The GI50 (SK-MEL-5) was 16 µM (inactive), the GI50 (HOP-92) was > 58.2 µM (inactive) and the GI50 (DLD-1) was 45.7 µM (inactive). For the same molecule, the GI50 (KM12) was 36.2 µM (inactive), the GI50 (EKVX) was > 93.1 µM (inactive) and the GI50 (U-251) was 28.6 µM (inactive). For the same molecule, the GI50 (NCI-H226) was 36.8 µM (inactive), the GI50 (NCI-H522) was 23.8 µM (inactive) and the GI50 (OVCAR-4) was 30.8 µM (inactive). For the same molecule, the GI50 (OVCAR-3) was 30.6 µM (inactive), the GI50 (UACC-62) was 47.9 µM (inactive) and the GI50 (LOX IMVI) was 16.9 µM (inactive). For the same molecule, the GI50 (HL-60) was 27.3 µM (inactive), the GI50 (ACHN) was 40.5 µM (inactive) and the GI50 (HCT-116) was 17.3 µM (inactive). For the same molecule, the GI50 (NCI-H23) was 42.5 µM (inactive), the GI50 (SN12C) was 62.2 µM (inactive) and the GI50 (SNB-78) was > 100 µM (inactive). For the same molecule, the GI50 (OVCAR-8) was 55.6 µM (inactive), the GI50 (CAKI-1) was > 50.9 µM (inactive) and the GI50 (HCT-15) was 23.5 µM. The GI50 (M19-MEL) was 37.7 µM (inactive), the GI50 (SK-MEL-2) was > 77.1 µM (inactive) and the GI50 (HOP-62) was > 100 µM (inactive). For the same molecule, the GI50 (NCI-H460) was 29.4 µM (inactive), the GI50 (RPMI-8226) was 30.8 µM (inactive) and the GI50 (A498) was 28.1 µM (inactive). For the same molecule, the GI50 (786-0) was 66.4 µM (inactive) and the GI50 (Malme-3M) was 98.2 µM (inactive).

With `Cc1nc(Nc2ccccc2)sc1C(=O)NNC(N)=O` the GI50 (XF498) was > 100 µM (inactive), the GI50 (KM-20L2) was > 100 µM (inactive) and the GI50 (SF-539) was > 100 µM (inactive). The GI50 (SNB-75) was 29.6 µM (inactive), the GI50 (UO-31) was > 100 µM (inactive) and the GI50 (K562) was > 100 µM (inactive). For the same molecule, the GI50 (TK-10) was > 100 µM (inactive), the GI50 (SK-OV-3) was > 100 µM (inactive) and the GI50 (HOP-18) was > 100 µM (inactive). The GI50 (HCC 2998) was > 100 µM (inactive), the GI50 (COLO 205) was > 100 µM (inactive) and the GI50 (UACC-257) was 27.4 µM (inactive). The GI50 (DMS-114) was 84.5 µM (inactive), the GI50 (OVCAR-5) was > 100 µM (inactive) and the GI50 (SNB-19) was > 100 µM (inactive). The GI50 (MOLT-4) was > 100 µM (inactive), the GI50 (SF-268) was > 100 µM (inactive) and the GI50 (DMS-273) was > 100 µM (inactive). The GI50 (A549) was > 100 µM (inactive), the GI50 (SF-295) was > 100 µM (inactive) and the GI50 (LXFL 529) was > 100 µM (inactive). The GI50 (M14) was > 100 µM (inactive), the GI50 (SW-620) was > 100 µM (inactive) and the GI50 (RXF 393) was 29.2 µM (inactive). For the same molecule, the GI50 (CCRF-CEM) was > 100 µM (inactive), the GI50 (IGROV-1) was > 100 µM (inactive) and the GI50 (SK-MEL-5) was > 100 µM (inactive). The GI50 (HOP-92) was 64.4 µM (inactive), the GI50 (DLD-1) was > 100 µM (inactive) and the GI50 (KM12) was > 100 µM (inactive). For the same molecule, the GI50 (EKVX) was 55.6 µM (inactive), the GI50 (U-251) was 99.3 µM (inactive) and the GI50 (NCI-H226) was > 100 µM (inactive). For the same molecule, the GI50 (NCI-H522) was > 100 µM (inactive), the GI50 (OVCAR-4) was > 100 µM (inactive) and the GI50 (OVCAR-3) was > 100 µM (inactive). The GI50 (UACC-62) was > 100 µM (inactive), the GI50 (LOX IMVI) was > 100 µM (inactive) and the GI50 (HL-60) was > 100 µM (inactive). The GI50 (ACHN) was > 100 µM (inactive), the GI50 (HCT-116) was > 100 µM (inactive) and the GI50 (NCI-H23) was > 100 µM (inactive). The GI50 (SN12C) was > 100 µM (inactive), the GI50 (SNB-78) was > 100 µM (inactive) and the GI50 (OVCAR-8) was > 100 µM (inactive). For the same molecule, the GI50 (CAKI-1) was > 100 µM (inactive), the GI50 (SK-MEL-28) was > 100 µM (inactive) and the GI50 (M19-MEL) was > 100 µM (inactive). The GI50 (SK-MEL-2) was > 100 µM (inactive), the GI50 (HOP-62) was 49.8 µM (inactive) and the GI50 (NCI-H460) was > 100 µM (inactive). For the same molecule, the GI50 (RPMI-8226) was > 100 µM (inactive), the GI50 (A498) was 46.9 µM (inactive) and the GI50 (786-0) was > 100 µM (inactive). For the same molecule, the GI50 (Malme-3M) was > 100 µM (inactive).

`CCC12C=CCN3CC[C@]4(C(=C(C(=O)OC)[C@@H]1Nc1ncnc5c1ncn5C1OC(COC(C)=O)C(OC(C)=O)C1OC(C)=O)Nc1ccccc14)C32` (some centres undefined) was tested, and the GI50 (XF498) was 3 µM (inactive), the GI50 (KM-20L2) was 2.71 µM (inactive) and the GI50 (SF-539) was 2.18 µM (inactive). The GI50 (SNB-75) was 2.43 µM (inactive), the GI50 (UO-31) was 5.62 µM (inactive) and the GI50 (K562) was 3.18 µM (inactive). For the same molecule, the GI50 (TK-10) was 2.87 µM (inactive), the GI50 (SK-OV-3) was 2.36 µM (inactive) and the GI50 (HOP-18) was 7.64 µM (inactive). For the same molecule, the GI50 (HT-29) was 2.23 µM (inactive), the GI50 (HCC 2998) was 1.82 µM (inactive) and the GI50 (COLO 205) was 1.88 µM (inactive). For the same molecule, the GI50 (UACC-257) was 5.3 µM (inactive), the GI50 (DMS-114) was 1.91 µM (inactive) and the GI50 (OVCAR-5) was 3.47 µM (inactive). For the same molecule, the GI50 (SNB-19) was 5.62 µM (inactive), the GI50 (MOLT-4) was 3.3 µM (inactive) and the GI50 (SF-268) was 2.05 µM (inactive). For the same molecule, the GI50 (DMS-273) was 2.75 µM (inactive), the GI50 (A549) was 3.53 µM (inactive) and the GI50 (SR) was 2.34 µM (inactive). The GI50 (SF-295) was 3.05 µM (inactive), the GI50 (LXFL 529) was 2.4 µM (inactive) and the GI50 (M14) was 2.62 µM (inactive). For the same molecule, the GI50 (SW-620) was 2.45 µM (inactive), the GI50 (RXF 393) was 2 µM (inactive) and the GI50 (CCRF-CEM) was 2.45 µM (inactive). The GI50 (IGROV-1) was 2.85 µM (inactive), the GI50 (SK-MEL-5) was 2.55 µM (inactive) and the GI50 (HOP-92) was 2.39 µM (inactive). The GI50 (DLD-1) was 2.69 µM (inactive), the GI50 (KM12) was 2.42 µM (inactive) and the GI50 (EKVX) was 4.78 µM (inactive). For the same molecule, the GI50 (U-251) was 2.19 µM (inactive), the GI50 (NCI-H226) was 2.36 µM (inactive) and the GI50 (NCI-H522) was 1.7 µM (inactive). For the same molecule, the GI50 (OVCAR-4) was 2.42 µM (inactive), the GI50 (OVCAR-3) was 1.98 µM (inactive) and the GI50 (UACC-62) was 3.11 µM (inactive). For the same molecule, the GI50 (LOX IMVI) was 1.75 µM (inactive), the GI50 (HL-60) was 2.65 µM (inactive) and the GI50 (ACHN) was 2.34 µM (inactive). The GI50 (HCT-116) was 2.82 µM (inactive), the GI50 (NCI-H23) was 1.97 µM (inactive) and the GI50 (SN12C) was 2.01 µM (inactive). For the same molecule, the GI50 (SNB-78) was 3.15 µM (inactive), the GI50 (OVCAR-8) was 2.18 µM (inactive) and the GI50 (CAKI-1) was 3.42 µM (inactive). The GI50 (SK-MEL-28) was 3.52 µM (inactive), the GI50 (HCT-15) was 3.04 µM and the GI50 (M19-MEL) was 1.99 µM (inactive). The GI50 (SK-MEL-2) was 3.44 µM (inactive), the GI50 (HOP-62) was 2.84 µM (inactive) and the GI50 (NCI-H460) was 2.51 µM (inactive). The GI50 (RPMI-8226) was 3.27 µM (inactive), the GI50 (A498) was 2.04 µM (inactive) and the GI50 (786-0) was 1.94 µM (inactive). The GI50 (Malme-3M) was 4.9 µM (inactive).
